Measured values reported in patent US12673041B2, “4-aminobut-2-enamide derivatives and salt thereof” (TAIHO PHARMACEUTICAL CO., LTD., priority 2019, dated 2026).
Where two headings read alike, the source gives them in different places.

What was measured:
[1] = target: T1, GMPPNP-bound KRAS G12C protein and cRAF RAS-binding domain (cRAF-RBD) (Homo sapiens, UniProt P01116, G12C); assay: Inhibitory activity on interaction between KRAS G12C and cRAF (Alpha technology); type: biochemical; conditions: then cRAF-RBD, Alpha signal
T1 construct: made in house; host or cells: E. coli
Outline: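 GMPPNP-loaded His-KRAS G12C (aa 1-169) preincubated 1 h at 25 °C with compound (pH 7.5 Tris, 1 mM MgCl2, TCEP, Tween 20), then cRAF-RBD (aa 50-132) and Alpha reagents added for 1.5 h at RT. Inhibition scaled between DMSO (0%) and GDP-bound KRAS (100%); IC50 by curve fitting.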

MIA PaCa-2 cells = assay: Growth inhibition activity on KRAS-G12C mutant cell line (MIA PaCa-2); type: cell-based; conditions: Homo sapiens, 72 h; MIA PaCa-2, 3-day culture, CellTiter-Glo 3D
Experimental: MIA PaCa-2 cells (given by Sumitomo Dainippon Pharma Co., Ltd.), which are a KRAS-G12C mutant human pancreas cancer cell line, were suspended in a 10% fetal bovine serum-containing RPMI1640 medium (manufactured by Fujifilm Wako Pure Chemical Corporation.). The cell suspension was seeded into each well of a 384-well U bottom microplate and cultured in an incubator containing 5% CO2 gas at 37° C. for 1 day. The compounds obtained in the “Preparation of Compounds” section were used as test compounds and were dissolved in DMSO, respectively, and each test compound was diluted with DMSO to give a concentration 500 times the final concentration. The resultant solution of the test compound in DMSO was diluted with the medium used for suspending cells and added to each well of the cell-culture plate to give a DMSO final concentration of 0.2%, followed by culture in an incubator containing 5% CO2 gas at 37° C. for another 3 days. The cell count after 3-day culture in the presence of the test compound was measured using CellTiter-Glo 3D Reagent (manufactured by Promega Corporation). All wells were added with CellTiter-Glo 3D Reagent and mixed for 10 minutes. 30 minutes after mixing, luminescence was measured by a plate reader. The growth inhibition rate was calculated from the following equation, and the concentration of the test compound at which 50% inhibition was achieved (IC50 (nM)) was determined. […] Growth Inhibition Rate (%)=(C−T)/(C)×100 • T: the emission intensity in a well into which a test compound was added. • C: the emission intensity in a well into which a test compound was not added.

[2] = target: Gppcp-bound recombinant K-Ras4B G12C mutant protein (amino acids 1-169, C51S/C80L/C118S) (Homo sapiens, UniProt P01116, C118S/C51S/C80L/G12C); assay: KRASG12C binding assay (LC-MS compound binding rate); conditions: test compound final concentration 0.5 μM, 25° C., 1 hour
Outline: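 Gppcp-bound K-Ras4B G12C (aa 1-169, C51S/C80L/C118S) at 50 nM in 1×TBS, 0.1 mM TCEP, 0.25 mM MgCl2, 50 μM Gppcp was incubated 1 hour at 25° C with compound at 0.5 μM final. Intact-protein LC-MS gave binding rate as single-adduct signal over total KRAS signal, graded A (≥80%) to E (<20%).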

[3] = GMPPNP-bound KRAS G12C incubated with compound at 25° C. for 1 hour, read-out: IC50

CO[C@H]1CC[C@H](NC/C=C/C(=O)Nc2ccc(C(=O)c3cn(C)c4c(-c5cc6ncn(C)c6cc5C(F)(F)F)cccc34)cc2C#N)CC1 [Example 38, (E)-N-(2-cyano-4-(1-methyl-7-(1-methyl-6-(trifluoromethyl)-1H-benzo[d]imidazol-5-yl)-1H-indole-3-carbonyl)phenyl)-4-(((1r,4r)-4-methoxycyclohexyl)amino)but-2-enamide]
IC50 ([1]; IC50, GMPPNP-bound KRAS G12C incubated with compound at 25° C. for 1 hour): 67 nM | IC50 (MIA PaCa-2 cells): 88 nM | binding rate [2]: A (A binding rate of 80% or more is rated “A”)

CCc1nc2cc(-c3cccc4c3CCN4C(=O)c3ccc(NC(=O)/C=C/CNC4CCN(C(C)C)CC4)c(C#N)c3)c(C(F)(F)F)cc2n1C [Example 30, (E)-N-(2-cyano-4-(4-(2-ethyl-1-methyl-6-(trifluoromethyl)-1H-benzo[d]imidazol-5-yl)indoline-1-carbonyl)phenyl)-4-((1-isopropylpiperidin-4-yl)amino)but-2-enamide]
IC50 [1, 3]: 75 nM | IC50 (MIA PaCa-2 cells): 370 nM | binding rate [2]: A (A binding rate of 80% or more is rated “A”)

CCN(CC)[C@H]1CC[C@H](NC/C=C/C(=O)Nc2ccc(C(=O)Nc3cccc(-c4cc5nc6n(c5cc4C(F)(F)F)CCC6)n3)cc2C#N)CC1 [Example 37, 3-cyano-4-((E)-4-(((1r,4r)-4-(diethylamino)cyclohexyl)amino)but-2-enamido)-N-(6-(7-(trifluoromethyl)-2,3-dihydro-1H-benzo[d]pyrrolo[1,2-a]imidazol-6-yl)pyridin-2-yl)benzamide]
IC50 [1, 3]: 12 nM | IC50 (MIA PaCa-2 cells): 550 nM | binding rate [2]: A (A binding rate of 80% or more is rated “A”)

CO[C@H]1CC[C@H](N(C)C/C=C/C(=O)Nc2ccc(C(=O)c3ccc4c(-c5cc6ncn(C)c6cc5C(F)(F)F)cccn34)cc2C#N)CC1 [Example 78, (E)-N-(2-cyano-4-(8-(1-methyl-6-(trifluoromethyl)-1H-benzo[d]imidazol-5-yl)indolizine-3-carbonyl)phenyl)-4-(((1r,4r)-4-methoxycyclohexyl)(methyl)amino)but-2-enamide]
IC50 [1, 3]: 96 nM | IC50 (MIA PaCa-2 cells): 400 nM | binding rate [2]: C (a binding rate of 40% or more and less than 60% is rated “C”)

CO[C@H]1CC[C@H](NC/C=C/C(=O)Nc2ccc(C(=O)c3cnc4c(-c5cc6ncn(C)c6cc5C)cccn34)cc2C#N)CC1 [Example 9, (E)-N-(2-cyano-4-(8-(1,6-dimethyl-1H-benzo[d]imidazol-5-yl)imidazo[1,2-a]pyridine-3-carbonyl)phenyl)-4-(((1r,4r)-4-methoxycyclohexyl)amino)but-2-enamide]
IC50 [1, 3]: 66 nM | IC50 (MIA PaCa-2 cells): 100 nM | binding rate [2]: B (a binding rate of 60% or more and less than 80% is rated “B”)

COc1cccc(Cl)c1-c1cccn2c(C(=O)c3ccc(NC(=O)/C=C/CN[C@H]4CC[C@H](OC)CC4)c(C#N)c3)ccc12 [Example 41, (E)-N-(4-(8-(2-chloro-6-methoxyphenyl)indolizine-3-carbonyl)-2-cyanophenyl)-4-(((1r,4r)-4-methoxycyclohexyl)amino)but-2-enamide]
IC50 [1, 3]: 85 nM | IC50 (MIA PaCa-2 cells): 370 nM | binding rate [2]: A (A binding rate of 80% or more is rated “A”)

Cn1cnc2c(Cl)c(-c3cccn4c(C(=O)c5ccc(NC(=O)/C=C/CNC(C)(C)C)c(C#N)c5)ccc34)c(Cl)cc21 [Example 55, (E)-4-(tert-butylamino)-N-(2-cyano-4-(8-(4,6-dichloro-1-methyl-1H-benzo[d]imidazol-5-yl)indolizine-3-carbonyl)phenyl)but-2-enamide]
IC50 [1, 3]: 21 nM | IC50 (MIA PaCa-2 cells): 140 nM | binding rate [2]: A (A binding rate of 80% or more is rated “A”)

CCc1nc2cc(-c3cccc4c3CCN4C(=O)c3ccc(NC(=O)/C=C/CN[C@H]4CC[C@H](N5CCCC5)CC4)c(C#N)c3)c(C(F)(F)F)cc2n1C [Example 29, (E)-N-(2-cyano-4-(4-(2-ethyl-1-methyl-6-(trifluoromethyl)-1H-benzo[d]imidazol-5-yl)indoline-1-carbonyl)phenyl)-4-(((1r,4r)-4-(pyrrolidin-1-yl)cyclohexyl)amino)but-2-enamide]
IC50 [1, 3]: 95 nM | IC50 (MIA PaCa-2 cells): 410 nM | binding rate [2]: A (A binding rate of 80% or more is rated “A”)

CO[C@H]1CC[C@H](NC/C=C/C(=O)Nc2ccc(C(=O)c3cnc4c(-c5cc6ncn(C)c6cc5C(F)(F)F)cccn34)cc2C#N)CC1 [Example 80, (E)-N-(2-cyano-4-(8-(1-methyl-6-(trifluoromethyl)-1H-benzo[d]imidazol-5-yl)imidazo[1,2-a]pyridine-3-carbonyl)phenyl)-4-(((1r,4r)-4-methoxycyclohexyl)amino)but-2-enamide]
IC50 [1, 3]: 27 nM | IC50 (MIA PaCa-2 cells): 190 nM | binding rate [2]: A (A binding rate of 80% or more is rated “A”)

CO[C@H]1CC[C@H](NC/C=C/C(=O)Nc2ccc(C(=O)c3c[nH]c4c(-c5cc6ncn(C)c6cc5C(F)(F)F)cccc34)cc2C#N)CC1 [Example 8, (E)-N-(2-cyano-4-(7-(1-methyl-6-(trifluoromethyl)-1H-benzo[d]imidazol-5-yl)-1H-indole-3-carbonyl)phenyl)-4-(((1r,4r)-4-methoxycyclohexyl)amino)but-2-enamide]
IC50 [1, 3]: 19 nM | IC50 (MIA PaCa-2 cells): 52 nM | binding rate [2]: A (A binding rate of 80% or more is rated “A”)

CO[C@H]1CC[C@H](NC/C=C/C(=O)Nc2ccc(C(=O)c3ccc4c(-c5c(C)cc6c(ncn6C)c5C(C)C)cccn34)cc2C#N)CC1 [Example 64, (E)-N-(2-cyano-4-(8-(4-isopropyl-1,6-dimethyl-1H-benzo[d]imidazol-5-yl)indolizine-3-carbonyl)phenyl)-4-(((1r,4r)-4-methoxycyclohexyl)amino)but-2-enamide]
IC50 [1, 3]: 82 nM | IC50 (MIA PaCa-2 cells): 69 nM | binding rate [2]: A (A binding rate of 80% or more is rated “A”)

CO[C@H]1CC[C@H](NC/C=C/C(=O)Nc2c(F)cc(C(=O)c3ccc4c(-c5cc6ncn(C)c6cc5C)cccn34)cc2F)CC1 [Example 73, (E)-N-(4-(8-(1,6-dimethyl-1H-benzo[d]imidazol-5-yl)indolizine-3-carbonyl)-2,6-difluorophenyl)-4-(((1r,4r)-4-methoxycyclohexyl)amino)but-2-enamide]
IC50 [1, 3]: 32 nM | IC50 (MIA PaCa-2 cells): 280 nM | binding rate [2]: A (A binding rate of 80% or more is rated “A”)

CO[C@H]1CC[C@H](NC/C=C/C(=O)Nc2c(F)cc(C(=O)c3ccc4c(-c5cc6ncn(C)c6cc5C(F)(F)F)cccn34)cc2F)CC1 [Example 70, (E)-N-(2,6-difluoro-4-(8-(1-methyl-6-(trifluoromethyl)-1H-benzo[d]imidazol-5-yl)indolizine-3-carbonyl)phenyl)-4-(((1r,4r)-4-methoxycyclohexyl)amino)but-2-enamide]
IC50 [1, 3]: 27 nM | IC50 (MIA PaCa-2 cells): 72 nM | binding rate [2]: A (A binding rate of 80% or more is rated “A”)

CO[C@H]1CC[C@H](NC/C=C/C(=O)Nc2ccc(C(=O)c3c[nH]c4c(-c5cc6nc7n(c6cc5C(F)(F)F)CCC7)cccc34)cc2C#N)CC1 [Example 35, (E)-N-(2-cyano-4-(7-(7-(trifluoromethyl)-2,3-dihydro-1H-benzo[d]pyrrolo[1,2-a]imidazol-6-yl)-1H-indole-3-carbonyl)phenyl)-4-(((1r,4r)-4-methoxycyclohexyl)amino)but-2-enamide]
IC50 [1, 3]: 19 nM | IC50 (MIA PaCa-2 cells): 39 nM | binding rate [2]: A (A binding rate of 80% or more is rated “A”)

CO[C@H]1CC[C@H](NC/C=C/C(=O)Nc2ccc(C(=O)c3ccc4c(-c5cc6ncn(C)c6cc5C(F)(F)F)cccn34)cc2C#N)CC1 [Example 6, (E)-N-(2-cyano-4-(8-(1-methyl-6-(trifluoromethyl)-1H-benzo[d]imidazol-5-yl)indolizine-3-carbonyl)phenyl)-4-(((1r,4r)-4-methoxycyclohexyl)amino)but-2-enamide]
IC50 [1, 3]: 15 nM | IC50 (MIA PaCa-2 cells): 43 nM | binding rate [2]: A (A binding rate of 80% or more is rated “A”)
